Assay results taken from patent publication US8906921B2, “4-alkoxypyridazine derivatives as fast dissociating dopamine 2 receptor antagonists” (Janssen Pharmaceutica NV, priority 2007, dated 2014).
Structures can show the parent of a compound that is named as a salt.

Row | melting point | Structure (SMILES)
1 | 211.3 °C | COc1cc(C(F)(F)F)nnc1NC1CCN(Cc2cccc(C(F)(F)F)c2)CC1 (as salt: hydrochloride)
2 | 121.5 °C | COc1cc(Cl)nnc1NC1CCN(Cc2cc(F)cc(C(F)(F)F)c2)CC1
3 | 130.5 °C | COc1cc(Cl)nnc1NC1CCN(Cc2ccc(F)c(F)c2)CC1
4 | 150.7 °C | COc1cc(Cl)nnc1NC1CCN(Cc2cc(F)c(F)c(F)c2)CC1
